Usually IC50 stands for the concentration at which inhibition is half-maximal. Low readings indicate greater potency, high ones weaker potency.

The test system of experiment [1] is Cx43-transfected cells (U251cx43-216 and U251cx43-217). The experiment can be described thus: Apoptosis by Hoechst dye staining after Tax. It is filed as cell-based, human. How it is done:
(§1) The assay was performed as we previously described (Huang et al., Cell Death Differ. 5:96-106 (1998)). Briefly, cells were fixed in Carnoy's solution (methanol:glacial […]; 3:1) and stained with 5 μg/ml of bisbenzimide trihydrochloride (Hoechst 33258) for 20 min. The morphology of nuclei was then observed with a Zeiss (Thornwood, N.Y.) photomicroscope II. At least 500 nuclei in each cell line were counted. Experiments were repeated four times.
(§2) Cx43-transfected cells (U251cx43-216 and U251cx43-217) and control-transfected cells (U251N2 and U251N23) were treated with different concentrations of Tax (0, 10^−9, and 4×10^−9). Four days after treatment, cells were analyzed for apoptosis by Hoechst dye staining.

The subject of experiment [2] is control-transfected cells (U251N2 and U251N23). Put plainly: Apoptosis by Hoechst dye staining after Tax. It is filed as cell-based, human. Conditions: 4×10^−9 M, four days after treatment. The method, then:
as §1, §2

Experiment [3] concerns U251cx43-216 cells. The experiment can be described thus: MTT cell viability assay. Conditions: Homo sapiens, 144 h. (Tetrazolium dyes change colour on reduction, which living cells bring about.)
In experiment [4] the test system is U251N23 cells. Put plainly: MTT cell viability assay. It is filed as cell-based. As to conditions: Homo sapiens, 144 h, day 6 after treatment, U251N23 (control-transfected). The method, then:
In vitro viability was determined by the 3-(4,5-dimethylthiazol-2yl)-2,5-diphenyltetrazolium bromide (MTT) colorimetric assay as described in (Huang et al., Cancer Res. 55:5054-5062 (1995)). Cells (1×10^3) were plated in triplicate in 96 well microplates overnight and treated with 5 different concentrations of VP16, Tax and DOX, respectively. […] Absorbance values at 570 nm were plotted as a measure of the relative number of cells. […] Both methods gave the identical results.
(§3) Values at OD 570 reflect the relative number of viable cells.

Experiment [5] deals with U251cx43-216 cells. The experiment can be described thus: Clonogenicity (cell survival) assay. It is filed as cell-based, human. How it is done:
(§4) The surviving cell fraction was determined by clonogenicity assay as previously described (Huang et al., J. Cell Biol. 133:211-220 (1996)). Cells were seeded at a density of 500 cells per 60 mm plate and incubated overnight and then treated with drugs; culture was then continued for 3 weeks. Clones were fixed in 4% formaldehyde-PBS and stained with Giemsa solution. Colonies containing more than 50 cells were counted and the fraction of surviving cells was calculated. The results represented the average of three separate experiments.
as §3

For experiment [6], the system named is U251N23 cells. Put plainly: Clonogenicity (cell survival) assay. It is filed as cell-based, human. How it is done: as §4, §3
Another experiment concerns U251cx43-217 cells. The experiment can be described thus: Soft agar colony formation assay. In kind it is cell-based, human. How it is done: (§5) Soft agar assay were performed as described previously (Huang, et al., Cancer Res. 58:5089-5096 (1998); Huang, et al., Mol. Carcinog. 30:209-217 (2001); Huang, et al., Carcinogenesis 20:485-492 (1999)). Briefly, cx43-transfected cells and control-transfected cells were assayed by seeding 1,000 cells in 0.26% agar medium into 6 well plates previously lined with 0.65% agar medium. The plates (in duplicate and repeated twice) were cultured for 3-4 weeks in the presence of different treatments and then stained with p-iodotetrazolium violet for overnight before photography and counting. Colony size equal to or greater than 15,625 μm^2 was scored as positive.
(§6) To examine the effect of down-regulation of MCP-1 on the transformed growth, cx43-transfected and control-transfected clones were assayed for their anchorage-independent growth in soft agar in the presence of MCP-1.

Experiment [7] deals with U251cx43-216 cells. Put plainly: Soft agar colony formation assay. It is filed as cell-based, human. The method, then: as §5, §6
Another experiment has as its system cx43-transfected cells. The experiment can be described thus: Cell proliferation in presence of cytokine or conditioned medium. In kind it is cell-based, human. The method, then: The experiment was performed as described in Huang et al., (Cancer Res. 55:5054-5062 (1995); and Oncogene 10:467-475 (1995)). Briefly, cells were seeded in 96-well plates. 24 hr later, cells were incubated in the presence of cytokine or conditioned medium for 48 hours. 0.5 μCi of ^3H-thymidine was added to each well and incubation was continuous for 24 hr. The incorporated ^3H-thymidine was then determined by a scintillation counter.
The down-regulation of MCP-1 in cx43-transfected cells raised the question of whether reversion of the transformed phenotype in cx43-transfected cell was mediated by the reduction of MCP-1 expression. To test this possibility, anti-MCP-1 neutralization antibody was added into the tissue culture medium to block the MCP-1 activity and to examine the cell proliferation by CyQUANT cell proliferation assay.

Experiment [8] has as its system Cx43-transfected clones and control-transfected clones. Put plainly: Apoptosis in the presence of MCP-1 or anti-MCP-1 antibody. In kind it is cell-based, human. Conditions: normal culture conditions, low serum conditions or in response to chemotherapeutic drugs. How it is done:
Cx43-transfected clones and control-transfected clones were assayed for apoptosis in the presence of MCP-1 or anti-MCP-1 antibody. […] Therefore, enhanced apoptosis under low serum conditions and decreased cell growth in cx43-transfected cells involves at least two separate pathways.

`CC(=O)O[C@H]1C(=O)[C@@]2(C)[C@H]([C@H](OC(=O)c3ccccc3)[C@]3(O)C[C@H](OC(=O)[C@H](O)[C@@H](NC(=O)c4ccccc4)c4ccccc4)C(C)=C1C3(C)C)[C@]1(OC(C)=O)CO[C@@H]1C[C@@H]2O` [Tax, Paclitaxel]: the “increase in apoptosis, cx43-expressing vs control-transfected cells” value in experiment [1] (Tax treatment, four days) was 3- to 4 fold. The “cells displaying typical features of apoptosis” value in [1] (cx43-transfected cells, 4×10^−9 M, four days after treatment) is given as “about 65%”. In addition, the apoptotic cells result in [2] is “about 17%”. Moreover, the values for the IC50 in the experiment with U251cx43-216 cells [3] and with U251N23 cells [4] were 0.71 nM and 1.5 nM, respectively. For the same compound, the “Colony formation (colonies counted)” value in the experiment on U251cx43-216 cells [5] (U251cx43-216, 1 × 10^−9, 3 weeks) is recorded as 9 +/− 5; with U251cx43-216 cells [5] (U251cx43-216, 4 × 10^−9, 3 weeks), 4 +/− 3; in the experiment with U251cx43-216 cells [5] (U251cx43-216, 4 × 10^−10, 3 weeks) it was 54 +/− 5; with U251N23 cells [6] (U251N23, 1 × 10^−9, 3 weeks) it was 37 +/− 6; in the experiment on U251N23 cells [6] (U251N23, 4 × 10^−9, 3 weeks) it was 16 +/− 2; in the experiment with U251N23 cells [6] (U251N23, 4 × 10^−10, 3 weeks) it was 108 +/− 9.
Take “MCP-1: Monocyte chemotactic protein-1 (MCP-1) is a member of the CC chemokine family”: the “Colony formation in soft agar” value is on record as 18.0 ± 2.83 in the experiment with U251cx43-217 cells (U251cx43-217, MCP-1 0.1 ng/ml); 24.5 ± 2.12 in the experiment on U251cx43-217 cells (U251cx43-217, MCP-1 1 ng/ml); 22.5 ± 3.53 in the experiment on U251cx43-217 cells (U251cx43-217, MCP-1 10 ng/ml); 20.5 ± 2.12 in the experiment with U251cx43-217 cells (U251cx43-217, MCP-1 100 ng/ml); 18.0 ± 2.83 in the experiment on U251cx43-216 cells [7] (U251cx43-216, MCP-1 0.1 ng/ml); 37.5 ± 3.53 in the experiment with U251cx43-216 cells [7] (U251cx43-216, MCP-1 1 ng/ml). For the same compound, the “Colony formation in soft agar” value in the experiment on U251cx43-216 cells [7] (U251cx43-216, MCP-1 10 ng/ml) is recorded as 28.5 ± 4.95; in the experiment with U251cx43-216 cells [7] (U251cx43-216, MCP-1 100 ng/ml), 36.0 ± 5.65. For the same compound, the “effect on cell proliferation rate” value in the experiment on cx43-transfected cells was “specifically stimulated”. Further, the effect on apoptosis entry in [8] is given as “did not have any effect”.

(Values after US20120045501A1, “CONNEXIN ENHANCES CHEMOTHERAPY-INCLUDED APOPTOSIS IN HUMAN CANCER CELLS INHIBITING TUMOR CELL PROLIFERATION” (Northwest Hospital, priority 2001, published 2012).)
